Here are results for 4 molecules from patent publication US9850542B2, “Gene signature to predict homologous recombination (HR) deficient cancer” (Board of Regents, The University of Texas System, priority 2013, dated 2017).

One test has as its system HCC1937. In words: Drug combination study by MTT assay (combination index, CompuSyn). It counts as cell-based, human. The protocol:
Cell Proliferation Assay. Cell proliferation was measured by MTT (3-(4,5-dimethylthiazol-2-yl)-2,5-diphenyltetrazolium bromide; Sigma) reduction. To test the cell proliferation rate, 500-1×10^4 cells/well were seeded in a 96-well plate in a total volume of 100 μL in triplicate in each experiment. The next day, cells were treated with indicated concentrations of drugs. Five days later, 20 μL of MTT substrate (2 mg/mL) was added to each well and incubated with cells for 3 hr. Then the culture medium was removed, and 100 μL of dimethyl sulfoxide was added. Plates were read at 490 nm and 650 nm (background) in a microplate reader (Molecular Devices). After subtraction of background, the cell viability was calculated as fold change relative to control cells. The OD values were analyzed with Graphpad Prism 6.0 software. Each value is relative to the value in the cells treated with vehicle control. Results are shown as mean±SEM from three independent experiments.
Drug Combination Studies. […] CI<1 indicated synergism, and CI=1 and CI>1 indicated additive and antagonism, respectively.
In general terms: Tetrazolium assays rely on reduction of a dye to a coloured formazan, in cell work by metabolically active cells.

For another test, the system named is BRCA mutation carriers. The note with it: phase I, oral monotherapy; cited from earlier work.
The test system of a further test is MCF-10A cells. Kind of test: Colony formation assay in MCF-10A knockdown cell lines. The format is cell-based, human. How it is done:
FIGS. 3A-C. Loss of PTEN Reverses HRD and Confers PARP Inhibitor Resistance to BRCA1-Depleted Cells through Over-expression of TTK. (A) Modified HR repair assay was performed in MCF-10A cells by transfecting cells with DRGFP DSB substrate plasmid and I-SceI plasmid through electroporation, followed by analysis of GFP-positive cells by flow cytometry 48 to 72 hours later. Each value is relative to the percentage of GFP-positive cells in I-SceI-transfected control cells. Results are show as mean±SD from three independent experiments. Student's t-test was performed from results of three independent experiments. (B) Cells were seeded at a very low density and treated with indicated concentrations of olaparib for 10 to 15 days to allow colony formation. The rate of cell survival in response to olaparib was determined by colony formation assay. Each value was relative to control cells without treatment and represents the mean±SD from three independent experiments. […] (C) Quantitative analysis of HR repair assay in cells transfected with TTK plasmids or the indicated siRNAs. Each value is relative to the percentage of GFP-positive cells in I-SceI-transfected control cells. Results are shown as mean±SD from three independent experiments. […] BRCA1 SMARTpool siRNA was used as a positive control.
FIGS. 11A-B. The HRD Gene Signature Predicts HR-deficiency and Sensitivity to PARP Inhibitors in Cancer Cells. (A) Cells were seeded in a very low density and treated with indicated concentrations of PARP inhibitor olaparib for 10-15 days to allow colony formation. The rate of cell survival was determined by colony-formation assay. Colonies were stained with 0.25% crystal violet/25% methanol and counted both manually and digitally using ImageJ software. […]
Colony Forming Assay. […] Colonies were counted manually (colonies containing 50 or more cells were counted) or digitally using ImageJ software with customized parameters optimized based on three preliminary manual counts or blindly chosen. […]

Test [1] deals with BRCA-negative patients with advanced-stage triple-negative breast cancer. The note with it: 15 BRCA-negative patients, advanced-stage TNBC; cited from earlier work.
Test [2] has as its system breast cancer patients with BRCA1/2 mutations. The conditions noted are these: phase II; cited from earlier work.
The subject of test [3] is BRCA1/2 mutation carriers with recurrent ovarian cancer. The conditions noted are these: phase II; cited from earlier work.
The test system of test [4] is cancer cell lines with and without the HRD gene signature. Kind of test: Colony formation and MTT assay in cancer cell lines with intact or defective HR. The note with it: prostate, renal, lung, ovarian, breast cancer lines; colony formation, MTT. It counts as cell-based, human. How it is done: FIGS. 2A-D. The HRD Gene Signature Predicts Sensitivity to PARP Inhibitors in Cancer Cells. (A) Cell lines with intact HR (I) and defective HR (D) were selected for five cancer types as follows: prostate cancer: PC-3 (D) and DU-145 (I); renal cancer: ACHN (D) and 7860-O (I); lung cancer: H266 (D) and H522 (I); ovarian cancer: OVCAR-3 (D) and OVCAR-8 (I); and breast cancer: MCF7 (D), MDA-MB-231 (I), and HCC1937 […]. Modified HR repair assay was performed by transfecting cells with DRGFP DSB substrate plasmid and I-SceI plasmid through electroporation at 270V, 975uF using a BioRad genepulsar II. Flow cytometry analysis was performed 48 to 72 hours later to detect GFP-positive cells. […] (B-D) Colony formation assay was performed with the indicated concentrations of olaparib (B) or rucaparib (C), or (D) cell lines were seeded in 96-well plates, treated with olaparib at the indicated concentrations for 5 days, and then analyzed by MTT assay. […]
Cell Proliferation Assay. Cell proliferation was measured by MTT (3-(4,5-dimethylthiazol-2-yl)-2,5-diphenyltetrazolium bromide; Sigma) reduction. […] Plates were read at 490 nm and 650 nm (background) in a microplate reader (Molecular Devices). After subtraction of background, the cell viability was calculated as fold change relative to control cells. The OD values were analyzed with Graphpad Prism 6.0 software. […]

For another test, the system named is HCC1937 cells. Kind of test: Apoptosis analysis. The format is cell-based, human. The conditions noted are these: olaparib plus TTK inhibitor, 48 hours. How it is done: FIGS. 14A-B. TTK inhibitor enhances apoptosis induced by PARP inhibitor. (A) TTK expression levels in basal-like or luminal breast cancer cell lines and immortal human mammalian epithelial cells. Cell lysates were harvested from indicated cell lines and subjected to Western blot analysis. (B) HCC1937 cells were treated with olaparib, or combined with TTK inhibitor AZ3146 for 48 hours and subjected to apoptosis analysis. Each value represents the mean±SD from three independent experiments.

For the molecule `CCNC(=O)c1noc(-c2cc(C(C)C)c(O)cc2O)c1-c1ccc(CN2CCOCC2)cc1` [AUY922], the “synergistic effect on PARP inhibitor treatment” value with HCC1937 (MTT) is “synergistic effect”. Moreover, the “synergy compared with vorinostat combinations” value in the test on HCC1937 (combinations with PARP inhibitors) is “relatively higher synergy”.

On to `O=C(c1cc(Cc2n[nH]c(=O)c3ccccc23)ccc1F)N1CCN(C(=O)C2CC2)CC1` [olaparib], for which the “BRCA mutation carriers that did not respond” value with BRCA mutation carriers was “more than 35%”. Further, the “sensitization by BRCA1-PTEN double knockdown” value in the test with MCF-10A cells (MCF-10A double knockdown cells) is reported as “did not sensitize cells”. Moreover, the “cellular sensitivity of BRCA1-, RAD51- and BRIT1-deficient cells” value in the test on MCF-10A cells (MCF-10A knockdown vs control cells, 10-15 days) was “greatly increased cellular sensitivity”. Moreover, the “sensitization by BRCA1 or PTEN deficiency” value in the test on MCF-10A cells (MCF-10A single knockdown cells) is reported as “sensitized cells”. Also, the “complete or partial responses” value in test [1] was “no complete or partial responses”. Also, in test [2], the response rate is given as 41%. In addition, in test [3], the objective response rate is given as 33%. Moreover, the “sensitivity of cell lines with the HRD gene signature compared with cell lines with intact HR repair” value in test [4] is given as “more sensitive”.

In the case of `CNCc1ccc(-c2[nH]c3cc(F)cc4c3c2CCNC4=O)cc1` [rucaparib], the “sensitivity of cell lines with the HRD gene signature compared with cell lines with intact HR repair” value in test [4] is listed as “more sensitive”.

With AZ3146, the apoptosis entry in the test with HCC1937 cells was “enhanced olaparib-induced apoptosis”.
